Laboratory results from patent US20230391845A1, “GLP-1, GIP AND GLUCAGON RECEPTOR TRIPLE AGONISTS” (priority 2020, published 2023).
*1 amine or outer side, *2 acyl side, *3 side chain or, on linkers, in order; H or OH if unused. Where a SMILES comes first, the peptide text is derived from it. Side-chain parts run from the residue outwards. [ ]: non-standard residue; d: D form. The star is where a group is joined. X1 = O=C(O)CCCCCCCCCCCCCCCCCCC(=O)NCC1CCC(C(=O)*)CC1; C20 diacid = O=C(O)CCCCCCCCCCCCCCCCCCC(=O)*; C18 diacid = O=C(O)CCCCCCCCCCCCCCCCC(=O)*; γGlu = O=C(O)[C@H](CCC(=O)[*:2])N[*:1]; εLys = N[C@@H](CCCCN[*:1])C(=O)[*:2]; AEEA = NCCOCCOCC(=O)O; Aib = CC(C)(N)C(=O)O

Tests used:
[1] = Pharmacokinetic study in minipigs, i.v. administration; parameters: species or system Göttingen minipigs; settings: minipig, in vivo, iv
Experimental: The purpose of this example is to determine the half-life in vivo of the triple agonists as described herein after i.v. administration to minipigs, i.e. the prolongation of their time in the body and thereby their time of action. This is done in a pharmacokinetic (PK) study, where the terminal half-life of the triple agonist in question is determined. By terminal half-life is generally meant the period of time it takes to halve a certain plasma concentration, measured after the initial distribution phase.
Female Göttingen minipigs were obtained from Ellegaard Göttingen Minipigs (Dalmose, Denmark) approximately 7-14 months of age and weighing from approximately 16-35 kg were used in the studies. The minipigs were housed individually and fed restrictedly once daily with SDS minipig diet (Special Diets Services, Essex, UK).
After at 3 weeks of acclimatisation two permanent central venous catheters were implanted in vena cava caudalis in each animal. The animals were allowed 1 week recovery after the surgery, and were then used for repeated pharmacokinetic studies with a suitable wash-out period between successive dosings.
The animals were fasted for approximately 18 hours before dosing and from 0 to 4 hours after dosing, but had adlibitum access to water during the whole period.
Intravenous injections (the volume corresponding to usually 1.5-2 nmol/kg, for example 0.1 mL/kg) of the triple agonists were given through one catheter, and blood was sampled at predefined time points for up to 14 days post dosing (preferably through the other catheter). Blood samples (for example 0.8 mL) were collected in 8 mM EDTA buffer and then centrifuged at 4° C. and 1942 g for 10 minutes.
Plasma was pipetted into Micronic tubes on dry ice and kept at −20° C. until analysed for plasma concentration of the triple agonists using ELISA, or a similar antibody-based assay, or LCMS. Individual plasma concentration-time profiles were analysed by a non-compartmental model in Phoenix WinNonLin ver. 6.4. (Pharsight Inc., Mountain View, CA, USA), and the resulting terminal half-lives (harmonic mean) determined.

human GLP-1 receptor = biological target: T1, human GLP-1 receptor (Homo sapiens, UniProt P43220); assay: In vitro functional potency (CRE luciferase; whole cells), human GLP-1R; assay type: cell-based; settings: BHK CRE luc2P hGLP-1R whole cells; Table 2; read-out: hGLP-1R CRE Luc EC50
T1 construct: expressed in transfected cells; host or cells: BHK cells (parent line BHKTS13) containing CRE luciferase
T1 sequence (P43220 24-463): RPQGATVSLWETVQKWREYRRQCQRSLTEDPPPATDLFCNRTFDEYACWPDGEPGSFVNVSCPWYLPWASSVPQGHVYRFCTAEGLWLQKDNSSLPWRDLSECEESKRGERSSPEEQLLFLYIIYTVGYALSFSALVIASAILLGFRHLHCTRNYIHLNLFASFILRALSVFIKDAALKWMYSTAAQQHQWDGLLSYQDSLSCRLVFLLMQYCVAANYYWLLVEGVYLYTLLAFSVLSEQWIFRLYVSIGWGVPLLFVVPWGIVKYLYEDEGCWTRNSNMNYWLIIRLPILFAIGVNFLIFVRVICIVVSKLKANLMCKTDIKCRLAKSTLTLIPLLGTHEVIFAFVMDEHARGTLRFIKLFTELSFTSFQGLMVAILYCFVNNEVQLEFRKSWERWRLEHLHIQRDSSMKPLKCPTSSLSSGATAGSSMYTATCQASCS

Row | SMILES | half-life ([1]; female, Göttingen) [h] | half-life [1] [h] | EC50 (human GLP-1 receptor) [pM]
1 | CC[C@H](C)[C@H](NC(=O)[C@H](CO)NC(=O)[C@H](Cc1ccc(O)cc1)NC(=O)[C@H](CC(=O)O)NC(=O)[C@H](CO)NC(=O)[C@@H](NC(=O)[C@H](Cc1ccccc1)NC(=O)[C@@H](NC(=O)CNC(=O)[C@H](CCC(N)=O)NC(=O)C(C)(C)NC(=O)[C@@H](N)Cc1ccc(O)cc1)[C@@H](C)O)[C@@H](C)O)C(=O)N[C@@H](Cc1ccc(O)cc1)C(=O)N[C@@H](CC(C)C)C(=O)N[C@@H](CC(=O)O)C(=O)N[C@@H](CCCCN)C(=O)N[C@@H](CCC(N)=O)C(=O)N[C@@H](C)C(=O)N[C@@H](C)C(=O)NC(C)(C)C(=O)N[C@@H](CCCCNC(=O)COCCOCCNC(=O)COCCOCCNC(=O)CC[C@H](NC(=O)CCCCCCCCCCCCCCCCCCC(=O)O)C(=O)O)C(=O)N[C@@H](Cc1ccccc1)C(=O)N[C@H](C(=O)N[C@@H](CCC(N)=O)C(=O)N[C@@H](Cc1c[nH]c2ccccc12)C(=O)N[C@@H](CC(C)C)C(=O)N[C@@H](CC(C)C)C(=O)N[C@@H](CCC(=O)O)C(=O)NCC(=O)NCC(=O)N1CCC[C@H]1C(=O)N[C@@H](CO)C(=O)N[C@@H](CO)C(=O)NCC(=O)N[C@@H](C)C(=O)N1CCC[C@H]1C(=O)N1CCC[C@H]1C(=O)N1CCC[C@H]1C(=O)N[C@@H](CO)C(N)=O)C(C)C [Compound No. 7] (H-Y[Aib]QGTFTSDYSIYLDKQAA[Aib]K([AEEA-AEEA-γGlu-C20 diacid])FVQWLLEGGPSSGAPPPS-NH2; N-terminus assumed) | 79 |  | 
2 | CC[C@H](C)[C@H](NC(=O)[C@H](CO)NC(=O)[C@H](Cc1ccc(O)cc1)NC(=O)[C@H](CC(=O)O)NC(=O)[C@H](CO)NC(=O)[C@@H](NC(=O)[C@H](Cc1ccccc1)NC(=O)[C@@H](NC(=O)CNC(=O)[C@H](CCC(N)=O)NC(=O)C(C)(C)NC(=O)[C@@H](N)Cc1ccc(O)cc1)[C@@H](C)O)[C@@H](C)O)C(=O)N[C@@H](Cc1ccc(O)cc1)C(=O)N[C@@H](CC(C)C)C(=O)N[C@@H](CC(=O)O)C(=O)N[C@@H](CCCCN)C(=O)N[C@@H](CCC(N)=O)C(=O)N[C@@H](C)C(=O)N[C@@H](C)C(=O)NC(C)(C)C(=O)N[C@@H](CCCCNC(=O)COCCOCCNC(=O)COCCOCCNC(=O)CC[C@H](NC(=O)C1CCC(CNC(=O)CCCCCCCCCCCCCCCCCCC(=O)O)CC1)C(=O)O)C(=O)N[C@@H](Cc1ccccc1)C(=O)N[C@H](C(=O)N[C@@H](CCC(N)=O)C(=O)N[C@@H](Cc1c[nH]c2ccccc12)C(=O)N[C@@H](CC(C)C)C(=O)N[C@@H](CC(C)C)C(=O)N[C@@H](CCC(=O)O)C(=O)NCC(=O)NCC(=O)N1CCC[C@H]1C(=O)N[C@@H](CO)C(=O)N[C@@H](CO)C(=O)NCC(=O)N[C@@H](C)C(=O)N1CCC[C@H]1C(=O)N1CCC[C@H]1C(=O)N1CCC[C@H]1C(=O)N[C@@H](CO)C(N)=O)C(C)C (stereo partly shown) [Compound No. 8] (H-Y[Aib]QGTFTSDYSIYLDKQAA[Aib]K([AEEA-AEEA-γGlu-X1])FVQWLLEGGPSSGAPPPS-NH2; N-terminus assumed) |  | 81 | 
3 | CC[C@H](C)[C@H](NC(=O)[C@H](CO)NC(=O)[C@H](Cc1ccc(O)cc1)NC(=O)[C@H](CC(=O)O)NC(=O)[C@H](CO)NC(=O)[C@@H](NC(=O)[C@H](Cc1ccccc1)NC(=O)[C@@H](NC(=O)CNC(=O)[C@H](CCC(N)=O)NC(=O)C(C)(C)NC(=O)[C@@H](N)Cc1ccc(O)cc1)[C@@H](C)O)[C@@H](C)O)C(=O)N[C@@H](Cc1ccc(O)cc1)C(=O)N[C@@H](CC(C)C)C(=O)N[C@@H](CC(=O)O)C(=O)N[C@@H](CCCCN)C(=O)N[C@@H](CCCCNC(=O)COCCOCCNC(=O)COCCOCCNC(=O)CC[C@H](NC(=O)CCCCCCCCCCCCCCCCCCC(=O)O)C(=O)O)C(=O)N[C@@H](C)C(=O)N[C@@H](C)C(=O)NC(C)(C)C(=O)N[C@@H](CCC(=O)O)C(=O)N[C@@H](Cc1ccccc1)C(=O)N[C@H](C(=O)N[C@@H](CC(N)=O)C(=O)N[C@@H](Cc1c[nH]c2ccccc12)C(=O)N[C@@H](CC(C)C)C(=O)N[C@@H](CC(C)C)C(=O)N[C@@H](C)C(=O)NCC(=O)NCC(=O)N1CCC[C@H]1C(=O)N[C@@H](CO)C(=O)N[C@@H](CO)C(=O)NCC(=O)N[C@@H](C)C(=O)N1CCC[C@H]1C(=O)N1CCC[C@H]1C(=O)N1CCC[C@H]1C(=O)N[C@@H](CO)C(N)=O)C(C)C [Compound No. 9] (H-Y[Aib]QGTFTSDYSIYLDKK([AEEA-AEEA-γGlu-C20 diacid])AA[Aib]EFVNWLLAGGPSSGAPPPS-NH2) | 103 |  | 4.4
4 | CC(C)C[C@H](NC(=O)[C@H](CC(C)C)NC(=O)[C@H](Cc1c[nH]c2ccccc12)NC(=O)[C@H](CCC(N)=O)NC(=O)[C@@H](NC(=O)[C@H](Cc1ccccc1)NC(=O)[C@H](CCC(=O)O)NC(=O)C(C)(C)NC(=O)[C@H](C)NC(=O)[C@H](C)NC(=O)[C@H](CCC(N)=O)NC(=O)[C@H](CCCCNC(=O)[C@@H](N)CCCCNC(=O)[C@@H](N)CCCCNC(=O)CC[C@H](NC(=O)C1CCC(CNC(=O)CCCCCCCCCCCCCCCCCCC(=O)O)CC1)C(=O)O)NC(=O)[C@H](CCC(=O)O)NC(=O)[C@H](CC(C)C)NC(=O)[C@H](Cc1ccc(O)cc1)NC(=O)[C@H](Cc1ccc(O)cc1)NC(=O)[C@H](CO)NC(=O)[C@H](Cc1ccc(O)cc1)NC(=O)[C@H](CC(=O)O)NC(=O)[C@H](CO)NC(=O)[C@@H](NC(=O)[C@H](Cc1ccccc1)NC(=O)[C@@H](NC(=O)CNC(=O)[C@H](Cc1c[nH]cn1)NC(=O)C(C)(C)NC(=O)[C@@H](N)Cc1c[nH]cn1)[C@@H](C)O)[C@@H](C)O)C(C)C)C(=O)N[C@@H](CCC(=O)O)C(=O)NCC(=O)NCC(=O)N1CCC[C@H]1C(=O)N[C@@H](CO)C(=O)N[C@@H](CO)C(=O)NCC(=O)N[C@@H](C)C(=O)N1CCC[C@H]1C(=O)N1CCC[C@H]1C(=O)N1CCC[C@H]1C(=O)N[C@@H](CO)C(N)=O (stereo partly shown) [Compound No. 25] (H-H[Aib]HGTFTSDYSYYLEK([εLys-εLys-γGlu-X1])QAA[Aib]EFVQWLLEGGPSSGAPPPS-NH2; N-terminus assumed) |  | 79 | 
5 | CC(C)C[C@H](NC(=O)[C@H](CC(C)C)NC(=O)[C@H](Cc1c[nH]c2ccccc12)NC(=O)[C@H](CCC(N)=O)NC(=O)[C@@H](NC(=O)[C@H](Cc1ccccc1)NC(=O)[C@H](CCC(=O)O)NC(=O)C(C)(C)NC(=O)[C@H](C)NC(=O)[C@H](C)NC(=O)[C@H](CCC(N)=O)NC(=O)[C@H](CCCCNC(=O)[C@@H](N)CCCCNC(=O)[C@@H](N)CCCCNC(=O)CC[C@H](NC(=O)CCCCCCCCCCCCCCCCC(=O)O)C(=O)O)NC(=O)[C@H](CCC(=O)O)NC(=O)[C@H](CC(C)C)NC(=O)[C@H](Cc1ccc(O)cc1)NC(=O)[C@H](Cc1ccc(O)cc1)NC(=O)[C@H](CO)NC(=O)[C@H](Cc1ccc(O)cc1)NC(=O)[C@H](CC(=O)O)NC(=O)[C@H](CO)NC(=O)[C@@H](NC(=O)[C@H](Cc1ccccc1)NC(=O)[C@@H](NC(=O)CNC(=O)[C@H](Cc1c[nH]cn1)NC(=O)C(C)(C)NC(=O)[C@@H](N)Cc1c[nH]cn1)[C@@H](C)O)[C@@H](C)O)C(C)C)C(=O)N[C@@H](CCC(=O)O)C(=O)NCC(=O)NCC(=O)N1CCC[C@H]1C(=O)N[C@@H](CO)C(=O)N[C@@H](CO)C(=O)NCC(=O)N[C@@H](C)C(=O)N1CCC[C@H]1C(=O)N1CCC[C@H]1C(=O)N1CCC[C@H]1C(=O)N[C@@H](CO)C(N)=O [Compound No. 32] (H-H[Aib]HGTFTSDYSYYLEK([εLys-εLys-γGlu-C18 diacid])QAA[Aib]EFVQWLLEGGPSSGAPPPS-NH2) | 52 |  | 
6 | CC(C)C[C@H](NC(=O)[C@H](CC(C)C)NC(=O)[C@H](Cc1c[nH]c2ccccc12)NC(=O)[C@H](CCC(N)=O)NC(=O)[C@@H](NC(=O)[C@H](Cc1ccccc1)NC(=O)[C@H](CCC(=O)O)NC(=O)C(C)(C)NC(=O)[C@H](C)NC(=O)[C@H](C)NC(=O)[C@H](CCC(N)=O)NC(=O)[C@H](CCCCNC(=O)[C@@H](N)CCCCNC(=O)[C@@H](N)CCCCNC(=O)CC[C@H](NC(=O)CCCCCCCCCCCCCCCCCCC(=O)O)C(=O)O)NC(=O)[C@H](CCC(=O)O)NC(=O)[C@H](CC(C)C)NC(=O)[C@H](CC(C)C)NC(=O)[C@H](Cc1ccc(O)cc1)NC(=O)[C@H](CO)NC(=O)[C@H](Cc1ccc(O)cc1)NC(=O)[C@H](CC(=O)O)NC(=O)[C@H](CO)NC(=O)[C@@H](NC(=O)[C@H](Cc1ccccc1)NC(=O)[C@@H](NC(=O)CNC(=O)[C@H](Cc1c[nH]cn1)NC(=O)C(C)(C)NC(=O)[C@@H](N)Cc1c[nH]cn1)[C@@H](C)O)[C@@H](C)O)C(C)C)C(=O)N[C@@H](CCC(=O)O)C(=O)NCC(=O)NCC(=O)N1CCC[C@H]1C(=O)N[C@@H](CO)C(=O)N[C@@H](CO)C(=O)NCC(=O)N[C@@H](C)C(=O)N1CCC[C@H]1C(=O)N1CCC[C@H]1C(=O)N1CCC[C@H]1C(=O)N[C@@H](CO)C(N)=O [Compound No. 42] (H-H[Aib]HGTFTSDYSYLLEK([εLys-εLys-γGlu-C20 diacid])QAA[Aib]EFVQWLLEGGPSSGAPPPS-NH2; N-terminus assumed) | 66 |  | 
